Laboratory results published in patent US20250084078A1, “FUSED RING-SUBSTITUTED SIX-MEMBERED HETEROCYCLIC COMPOUND, AND PREPARATION METHOD THEREFOR AND USE THEREOF” (GENFLEFT THERAPEUTICS (SHANGHAI) INC., priority 2022, published 2025).

target: HPK1 (Homo sapiens, UniProt Q92918); assay: SLP76 phosphorylation assay (intracellular HPK1 inhibitory activity, p-SLP76 S376 ELISA in Jurkat cells); settings: p-SLP76 IC50, Jurkat, Clone E6-1 cells; 1 h compound pre-incubation; anti-CD3 beads stimulation 20 min; Phospho-SLP-76 (Ser376) ELISA
Sequence (Q92918 whole entry): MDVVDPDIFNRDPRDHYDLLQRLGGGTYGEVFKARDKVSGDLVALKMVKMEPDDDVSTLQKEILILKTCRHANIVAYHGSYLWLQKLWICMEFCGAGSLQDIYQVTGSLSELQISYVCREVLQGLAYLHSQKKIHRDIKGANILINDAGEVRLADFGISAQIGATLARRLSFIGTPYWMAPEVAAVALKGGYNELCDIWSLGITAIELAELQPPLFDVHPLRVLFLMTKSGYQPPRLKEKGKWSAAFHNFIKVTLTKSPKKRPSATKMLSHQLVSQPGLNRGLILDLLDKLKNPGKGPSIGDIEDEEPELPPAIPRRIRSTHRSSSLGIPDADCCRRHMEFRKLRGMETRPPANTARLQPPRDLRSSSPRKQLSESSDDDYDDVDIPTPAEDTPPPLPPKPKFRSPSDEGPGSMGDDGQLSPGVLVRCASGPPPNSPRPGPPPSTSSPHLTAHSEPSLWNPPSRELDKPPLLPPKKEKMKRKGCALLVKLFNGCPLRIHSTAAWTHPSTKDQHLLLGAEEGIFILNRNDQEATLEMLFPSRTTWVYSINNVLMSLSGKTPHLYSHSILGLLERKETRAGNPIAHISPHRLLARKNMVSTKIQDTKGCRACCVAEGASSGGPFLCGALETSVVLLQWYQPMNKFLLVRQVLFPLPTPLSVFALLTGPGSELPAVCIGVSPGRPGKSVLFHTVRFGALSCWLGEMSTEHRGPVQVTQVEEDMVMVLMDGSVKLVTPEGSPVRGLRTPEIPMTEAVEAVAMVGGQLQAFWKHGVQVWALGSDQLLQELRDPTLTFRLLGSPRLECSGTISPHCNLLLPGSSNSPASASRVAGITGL

Structure (SMILES)	IC50
Cc1c[nH]c2ncc(-c3cc4c(c([C@@H]5COCCN5)c3)CN(C(=O)C3(C)COC3)CC4)cc12 [Compound Z505, (R)-(6-(3-methyl-1H-pyrrolo[2,3-b]pyridin-5-yl)-8-(morpholin-3-yl)-3,4-dihydroisoquinolin-2(1H)-yl)(3-methyloxetan-3-yl)methanone]	263 nM
Cc1c(F)[nH]c2ncc(-c3cc4c(c([C@@H]5COCCN5)c3)CN(C(=O)C(C)(C)O)CC4)cc12 [Compound Z510, (R)-1-(6-(2-fluoro-3-methyl-1H-pyrrolo[2,3-b]pyridin-5-yl)-8-(morpholin-3-yl)-3,4-tetrahydroisoquinolin-2(1H)-yl)-2-hydroxy-2-methylpropan-1-one]	283 nM
COC1(C(=O)N2CCc3cc(-c4cnc5[nH]cc(C)c5c4)cc([C@@H]4COCCN4)c3C2)CC1 [Compound Z373, (R)-(1-methoxycyclopropyl)(6-(3-methyl-1H-pyrrolo[2,3-b]pyridin-5-yl)-8-(morpholin-3-yl)-3,4-dihydroisoquinolin-2(1H)-yl)methanone]	159 nM
Cc1c[nH]c2ncc(-c3cc4c(c([C@@H]5COCCN5)c3)CN(S(=O)(=O)C3CC3)CC4)cc12 [Compound Z467, (R)-3-[2-cyclopropylsulfonyl-6-(3-methyl-1H-pyrrolo[2,3-b]pyridin-5-yl)-1,2,3,4-tetrahydroisoquinolin-8-yl]morpholine]	385 nM
Cc1cc(C(=O)N2CCc3cc(-c4cnc5[nH]cc(Cl)c5c4)cc([C@@H]4COCCN4)c3C2)nc(C)n1 [Compound Z531, (R)-(6-(3-chloro-1H-pyrrolo[2,3-b]pyridin-5-yl)-8-(morpholin-3-yl)-3,4-dihydroisoquinolin-2(1H)-yl)(2,6-dimethylpyrimidin-4-yl)methanone]	385 nM
Cc1c[nH]c2ncc(-c3cc4c(c([C@@H]5COCCN5)c3)CN(CC3(O)CCOCC3)CC4)cc12 [Compound Z538, (R)-4-((6-(3-methyl-1H-pyrrolo[2,3-b]pyridin-5-yl)-8-(morpholin-3-yl)-3,4-dihydroisoquinolin-2(1H)-yl)methyl)tetrahydro-2H-pyran-4-ol]	1050 nM
Cc1ncc(C(=O)N2CCc3cc(-c4cnc5[nH]cc(Cl)c5c4)cc([C@@H]4COCCN4)c3C2)cn1 [Compound Z532, (R)-(6-(3-50 chloro-1H-pyrrolo[2,3-b]pyridin-5-yl)-8-(morpholin-3-yl)-3,4-dihydroisoquinolin-2(1H)-yl)(2-methylpyrimidin-5-yl)methanone]	394 nM
O=C(N1CCc2cc(-c3cnc4[nH]cc(Cl)c4c3)cc([C@@H]3COCCN3)c2C1)C1(O)CCOCC1 [Compound Z485, (R)-(6-(3-chloro-1H-pyrrolo[2,3-b]pyridin-5-yl)-8-(morpholin-3-yl)-3,4-dihydroisoquinolin-2(1H)-yl)(4-hydroxytetrahydro-2H-pyran-4-yl)methanone]	126 nM
Cc1c[nH]c2ncc(-c3cc4c(c([C@@H]5COCCN5)c3)CN(C(=O)N3CCC5(CCOCC5)C3)CC4)cc12 [Compound Z565, (R)-(6-(3-methyl-1H-pyrrolo[2,3-b]pyridin-5-yl)-8-(morpholin-3-yl)-3,4-dihydroisoquinolin-2(1H)-yl)(8-oxa-2-azaspiro[4.5]decan-2-yl)methanone]	245 nM
CC(C)(O)C(=O)N1CCc2cc(-c3cnc4[nH]cc(C#N)c4c3)cc([C@@H]3COCCN3)c2C1 [Compound Z506, (R)-5-(2-(2-hydroxy-2-methylpropanoyl)-8-(morpholin-3-yl)-1,2,3,4-tetrahydroisoquinolin-6-yl)-1H-pyrrolo[2,3-b]pyridine-3-carbonitrile]	685 nM
CCc1c(F)[nH]c2ncc(-c3cc4c(c([C@@H]5COCCN5)c3)CN(C(=O)C(C)(C)O)CC4)cc12 [Compound Z464, (R)-3-(6-(3-ethyl-2-fluoro-1H-pyrrolo[2,3-b]pyridin-5-yl)-2-(2-hydroxy-2-methylpropanoyl)-1,2,3,4-tetrahydroisoquinolin-8-yl)morpholine]	193 nM

Further lines, results first:

IC50	Structure (SMILES)
154 nM	CC1(C)CC(O)CN1C(=O)N1CCc2cc(-c3cnc4[nH]cc(Cl)c4n3)cc([C@@H]3COCCN3)c2C1 (stereo partly drawn) [Compound Z569, (6-(7-chloro-5H-pyrrolo[2,3-b]pyrazin-2-yl)-8-((R)-morpholin-3-yl)-3,4-dihydroisoquinolin-2(1H)-yl)(4-hydroxy-2,2-dimethylpyrrolidin-1-yl)methanone]
240 nM	O=C([C@H]1CCOC1)N1CCc2cc(-c3cnc4[nH]cc(Cl)c4c3)cc([C@@H]3COCCN3)c2C1 [Compound Z631, (6-(3-chloro-1H-pyrrolo[2,3-b]pyridin-5-yl)-8-((R)-morpholin-3-yl)-3,4-dihydroisoquinolin-2(1H)-yl)((S)-tetrahydrofuran-3-yl)methanone]
153 nM	Cc1c[nH]c2ncc(-c3cc4c(c([C@@H]5COCCN5)c3)CN(C(=O)N3CC[C@@H](F)C3)CC4)cc12 [Compound Z486, ((R)-3-fluoropyrrolidin-1-yl)(6-(3-methyl-1H-pyrrolo[2,3-b]pyridin-5-yl)-8-((R)-morpholin-3-yl)-3,4-dihydroisoquinolin-2(1H)-yl)methanone]
117 nM	O=C(N1CCc2cc(-c3cnc4[nH]cc(F)c4c3)cc([C@@H]3COCCN3)c2C1)N1CC2CCC(C1)O2 [Compound Z475]
229 nM	CCc1c[nH]c2ncc(-c3cc4c(c([C@@H]5COCCN5)c3)CN(C(=O)c3cnc(C)nc3)CC4)nc12 [Compound Z533, (R)-(6-(7-ethyl-5H-pyrrolo[2,3-b]pyrazin-2-yl)-8-(morpholin-3-yl)-3,4-dihydroisoquinolin-2(1H)-yl)(2-methylpyrimidin-5-yl)methanone]
171 nM	Cc1c[nH]c2ncc(-c3cc4c(c([C@@H]5COCCN5)c3)CN(C(=O)N3CC(C)OC(C)C3)CC4)cc12 (stereo partly drawn) [Compound Z459, (2,6-dimethylmorpholine)(6-(3-methyl-1H-pyrrolo[2,3-b]pyridin-5-yl)-8-((R)-morpholin-3-yl)-3,4-dihydroisoquinolin-2(1H)-yl)methanone]
481 nM	O=C(N1CCC(O)CC1)N1CCc2cc(-c3cnc4[nH]cc(Cl)c4c3)cc([C@@H]3COCCN3)c2C1 [Compound Z555, (R)-(6-(3-chloro-1H-pyrrolo[2,3-b]pyridin-5-yl)-8-(morpholin-3-yl)-3,4-dihydroisoquinolin-2(1H)-yl)(4-hydroxypiperidin-1-yl)methanone]
197 nM	Cc1c[nH]c2ncc(-c3cc4c(c([C@@H]5COCCN5)c3)CN(C(=O)N3C[C@@H](C)O[C@@H](C)C3)CC4)cc12 [Compound Z519, ((2R,6S)-2,6-dimethylmorpholine)(6-(3-methyl-1H-pyrrolo[2,3-b]pyridin-5-yl)-8-((R)-morpholin-3-yl)-3,4-dihydroisoquinolin-2-1H-yl)methanone]
420 nM	CN1C2CCC1CN(C(=O)N1CCc3cc(-c4cnc5[nH]cc(Cl)c5n4)cc([C@@H]4COCCN4)c3C1)C2 [Compound Z575, (6-(7-chloro-5H-pyrrolo[2,3-b]pyrazin-2-yl)-8-((R)-morpholin-3-yl)-3,4-dihydroisoquinolin-2(1H)-yl)(8-methyl-3,8-diazabicyclo[3.2.1]octan-3-yl)methanone]
216 nM	CN1CC2CCC(C1)N2C(=O)N1CCc2cc(-c3cnc4[nH]cc(Cl)c4c3)cc([C@@H]3COCCN3)c2C1 [Compound Z472]
127 nM	CN1C2CCC1CN(C(=O)N1CCc3cc(-c4cnc5[nH]cc(Cl)c5c4)cc([C@@H]4COCCN4)c3C1)C2 [Compound Z470]
